Source: the supplement of paper PMC7017272
± gives the standard deviation of the averaged measurements.

Assays:
Conditions in all cases: treatment time: 3 days
[1] = tested on: UT-SCC-106A; assay: maximal % inhibition of viability relative to DMSO; higher = stronger effect
Summary of the method: (§1)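 Viability was read with CellTiter-Glo 2.0 luminescence and scaled against vehicle (0.1% DMSO) and cell-killing control wells. The assay used HPV-negative HNSCC cell lines at 500 cells/well in 384-well plates, grown on plastic, on Matrigel or Myogel coatings (500 µg/mL), or embedded in Matrigel or Myogel plus rat collagen I, and treated for 3 days at five 10-fold concentrations. IC50, maximal inhibition and drug sensitivity score were derived from percent-inhibition dose–response curves fitted in the FIMM pipeline.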

[2] = tested on: UT-SCC-14; assay: as above
Summary of the method: as §1

[3] = tested on: UT-SCC-24B; assay: as above
Summary of the method: as §1

[4] = tested on: UT-SCC-28; assay: as above
Summary of the method: as §1

[5] = tested on: UT-SCC-40; assay: as above
Summary of the method: as §1

[6] = tested on: UT-SCC-42A; assay: as above
Summary of the method: as §1

[7] = tested on: UT-SCC-42B; assay: as above
Summary of the method: as §1

[8] = tested on: UT-SCC-44; assay: as above
Summary of the method: as §1

[9] = tested on: UT-SCC-73; assay: as above
Summary of the method: as §1

[10] = tested on: UT-SCC-81; assay: as above
Summary of the method: as §1

[11] = tested on: UT-SCC-8; assay: as above
Summary of the method: as §1

[12] = tested on: UT-SCC-106A; assay: drug sensitivity score (DSS); higher = more sensitive; extreme values may be limits of the assay
Summary of the method: as §1

[13] = tested on: UT-SCC-28; assay: as above
Summary of the method: as §1

[14] = tested on: UT-SCC-40; assay: as above
Summary of the method: as §1

[15] = tested on: UT-SCC-42A; assay: as above
Summary of the method: as §1

[16] = tested on: UT-SCC-42B; assay: as above
Summary of the method: as §1

[17] = tested on: UT-SCC-44; assay: as above
Summary of the method: as §1

[18] = tested on: UT-SCC-73; assay: as above
Summary of the method: as §1

[19] = tested on: UT-SCC-81; assay: as above
Summary of the method: as §1

[20] = tested on: UT-SCC-8; assay: as above
Summary of the method: as §1

[21] = culture condition: embedded in Matrigel
[22] = culture condition: embedded in Myogel + collagen I
[23] = culture condition: on top of Matrigel
[24] = culture condition: on top of Myogel
[25] = culture condition: plastic 2D (no matrix)

## Cc1c(CN2CCN(C(=O)[C@H](C)O)CC2)sc2c(N3CCOCC3)nc(-c3cnc(N)nc3)nc12 [Apitolisib]
[1]; [21]
  maximal % inhibition of viability: 69.8 ± 1.9%
[1]; [22]
  maximal % inhibition of viability: 60.4 ± 6.1%
[1]; [23]
  maximal % inhibition of viability: 74.7 ± 0.85%
[1]; [24]
  maximal % inhibition of viability: 66 ± 4%
[1]; [25]
  maximal % inhibition of viability: 81.2 ± 5%
[2]; [21]
  maximal % inhibition of viability: 84.33 ± 0.67%
[2]; [22]
  maximal % inhibition of viability: 80.8 ± 3%
[2]; [23]
  maximal % inhibition of viability: 85.5 ± 3.3%
[2]; [24]
  maximal % inhibition of viability: 79.4 ± 0.92%
[2]; [25]
  maximal % inhibition of viability: 82.1 ± 3.8%
[3]; [21]
  maximal % inhibition of viability: 91.37 ± 0.75%
[3]; [22]
  maximal % inhibition of viability: 92.1 ± 2.7%
[3]; [23]
  maximal % inhibition of viability: 90.4 ± 1.1%
[3]; [24]
  maximal % inhibition of viability: 90.53 ± 0.42%
[3]; [25]
  maximal % inhibition of viability: 92.97 ± 0.47%
[4]; [21]
  maximal % inhibition of viability: 63.5 ± 2.3%
[4]; [22]
  maximal % inhibition of viability: 76.8 ± 4.2%
[4]; [23]
  maximal % inhibition of viability: 69.97 ± 0.67%
[4]; [25]
  maximal % inhibition of viability: 68.4 ± 2.8%
[5]; [21]
  maximal % inhibition of viability: 89.1 ± 2.1%
[5]; [22]
  maximal % inhibition of viability: 78.6 ± 1.7%
[5]; [23]
  maximal % inhibition of viability: 87.3 ± 1.2%
[5]; [24]
  maximal % inhibition of viability: 64 ± 9.4%
[5]; [25]
  maximal % inhibition of viability: 74.7 ± 2.4%
[6]; [21]
  maximal % inhibition of viability: 79.9 ± 3.6%
[6]; [22]
  maximal % inhibition of viability: 75.8 ± 1.8%
[6]; [23]
  maximal % inhibition of viability: 80.1 ± 2.3%
[6]; [24]
  maximal % inhibition of viability: 75.2 ± 1.4%
[6]; [25]
  maximal % inhibition of viability: 81 ± 1.5%
[7]; [21]
  maximal % inhibition of viability: 86.7 ± 1.6%
[7]; [23]
  maximal % inhibition of viability: 76.3 ± 2.2%
[7]; [24]
  maximal % inhibition of viability: 58.6 ± 2%
[7]; [25]
  maximal % inhibition of viability: 64.5 ± 1.8%
[8]; [21]
  maximal % inhibition of viability: 57.8 ± 1.6%
[8]; [22]
  maximal % inhibition of viability: 65.8 ± 3.9%
[8]; [23]
  maximal % inhibition of viability: 58.2 ± 1.4%
[8]; [24]
  maximal % inhibition of viability: 65.9 ± 2%
[8]; [25]
  maximal % inhibition of viability: 63.5 ± 5%
[9]; [21]
  maximal % inhibition of viability: 84.2 ± 2.6%
[9]; [22]
  maximal % inhibition of viability: 76.2 ± 4.4%
[9]; [23]
  maximal % inhibition of viability: 82.4 ± 0.53%
[9]; [24]
  maximal % inhibition of viability: 79.5 ± 2.6%
[9]; [25]
  maximal % inhibition of viability: 81.8 ± 2.3%
[10]; [21]
  maximal % inhibition of viability: 93.5 ± 1.6%
[10]; [22]
  maximal % inhibition of viability: 81.1 ± 4.5%
[10]; [23]
  maximal % inhibition of viability: 88.93 ± 0.85%
[10]; [24]
  maximal % inhibition of viability: 79.9 ± 1.5%
[10]; [25]
  maximal % inhibition of viability: 82.8 ± 3.6%
[11]; [21]
  maximal % inhibition of viability: 97.57 ± 0.12%
[11]; [22]
  maximal % inhibition of viability: 87.6 ± 4.4%
[11]; [23]
  maximal % inhibition of viability: 94.8 ± 1.1%
[11]; [24]
  maximal % inhibition of viability: 90.4 ± 1.6%
[11]; [25]
  maximal % inhibition of viability: 94 ± 1.2%
[12]; [21]
  drug sensitivity score: 11.7 ± 0.66 DSS
[12]; [22]
  drug sensitivity score: 6.97 ± 1 DSS
[12]; [23]
  drug sensitivity score: 10.8 ± 0.35 DSS
[12]; [24]
  drug sensitivity score: 6.23 ± 0.6 DSS
[12]; [25]
  drug sensitivity score: 9.27 ± 1 DSS
[13]; [21]
  drug sensitivity score: 10.4 ± 1.3 DSS
[13]; [22]
  drug sensitivity score: 9 ± 2 DSS
[13]; [23]
  drug sensitivity score: 12.4 ± 1.5 DSS
[13]; [25]
  drug sensitivity score: 10.8 ± 0.51 DSS
[14]; [21]
  drug sensitivity score: 9.4 ± 0.27 DSS
[14]; [22]
  drug sensitivity score: 7.23 ± 0.25 DSS
[14]; [23]
  drug sensitivity score: 8.07 ± 0.49 DSS
[14]; [24]
  drug sensitivity score: 5.3 ± 1.7 DSS
[14]; [25]
  drug sensitivity score: 6.33 ± 1.2 DSS
[15]; [21]
  drug sensitivity score: 7.43 ± 0.45 DSS
[15]; [22]
  drug sensitivity score: 8.1 ± 1.3 DSS
[15]; [23]
  drug sensitivity score: 8.03 ± 1.3 DSS
[15]; [24]
  drug sensitivity score: 7.07 ± 0.4 DSS
[15]; [25]
  drug sensitivity score: 8.8 ± 1.1 DSS
[16]; [21]
  drug sensitivity score: 7.13 ± 2.4 DSS
[16]; [23]
  drug sensitivity score: 5.47 ± 0.81 DSS
[16]; [24]
  drug sensitivity score: 4.4 ± 1 DSS
[16]; [25]
  drug sensitivity score: 4.43 ± 0.93 DSS
[17]; [21]
  drug sensitivity score: 9.77 ± 0.86 DSS
[17]; [22]
  drug sensitivity score: 6.17 ± 1.4 DSS
[17]; [23]
  drug sensitivity score: 8.4 ± 0.1 DSS
[17]; [24]
  drug sensitivity score: 8.03 ± 2.9 DSS
[17]; [25]
  drug sensitivity score: 6.67 ± 0.55 DSS
[18]; [21]
  drug sensitivity score: 9 ± 1.2 DSS
[18]; [22]
  drug sensitivity score: 8.2 ± 1.4 DSS
[18]; [23]
  drug sensitivity score: 7.8 ± 0.36 DSS
[18]; [24]
  drug sensitivity score: 7.37 ± 0.15 DSS
[18]; [25]
  drug sensitivity score: 7.23 ± 1.2 DSS
[19]; [21]
  drug sensitivity score: 14.9 ± 3 DSS
[19]; [22]
  drug sensitivity score: 10.4 ± 0.81 DSS
[19]; [23]
  drug sensitivity score: 8.87 ± 0.71 DSS
[19]; [24]
  drug sensitivity score: 8.53 ± 1.1 DSS
[19]; [25]
  drug sensitivity score: 8.8 ± 1.8 DSS
[20]; [21]
  drug sensitivity score: 9.63 ± 0.38 DSS
[20]; [22]
  drug sensitivity score: 6.2 ± 2.1 DSS
[20]; [23]
  drug sensitivity score: 9.23 ± 0.51 DSS
[20]; [24]
  drug sensitivity score: 9.13 ± 1 DSS
[20]; [25]
  drug sensitivity score: 9.17 ± 0.32 DSS
